Experimental data as given in US6642251B1, “Geometrically restricted 2-indolinone derivatives as modulators of protein kinase activity” (Sugen, Inc., priority 1998, dated 2003).

Test system: HUV-EC-C cells (human umbilical vein endothelial cells)
Assay: HUV-EC-C assay, VEGF-stimulated (VEGF HUVEC)
Type: cell-based
Experimental: The following protocol may also be used to measure a compound's activity against PDGF-R, FGF-R, VEGF, aFGF or Flk-1/KDR, all of which are naturally expressed by HUV-EC cells.
1. Wash and trypsinize HUV-EC-C cells (human umbilical vein endothelial cells, (American Type Culture Collection; catalogue no. 1730 CRL). Wash with Dulbecco's phosphate-buffered saline (D-PBS; obtained from Gibco BRL; catalogue no. 14190-029) 2 times at about 1 ml/10 cm^2 of tissue culture flask. Trypsinize with 0.05% trypsin-EDTA in non-enzymatic cell dissociation solution (Sigma Chemical Company; catalogue no. C-1544). The 0.05% trypsin is made by diluting 0.25% trypsin/l mM EDTA (Gibco; catalogue no. 25200-049) in the cell dissociation solution. Trypsinize with about 1 ml/25-30 cm^2 of tissue culture flask for about 5 minutes at 37° C. After cells have detached from the flask, add an equal volume of assay medium and transfer to a 50 ml sterile centrifuge tube (Fisher Scientific; catalogue no. 05-539-6).
2. Wash the cells with about 35 ml assay medium in the 50 ml sterile centrifuge tube by adding the assay medium, centrifuge for 10 minutes at approximately 200×g, aspirate the supernatant, and resuspend with 35 ml D-PBS. Repeat the wash two more times with D-PBS, resuspend the cells in about 1 ml assay medium/15 cm^2 of tissue culture flask. […]

IC50 [nM]	Compound
330	O=C1Nc2ccccc2/C1=C1\CCc2ccccc21 [Compound 10, 3-Indan-1-ylidene-1,3-dihydroindol-2-one]
50	COc1ccc2c(c1)C(CC(=O)O)C/C2=C1/C(=O)Nc2ccccc21 (centres unmarked) [Compound 11, [6-Methoxy-3-(2-oxo-1,2-dihydroindol-3-ylidene)-indan-1-yl]acetic Acid]
